# Data from patent publication US7579338B2, “Methods and compositions for treating atheroma, tumors and other neoplastic tissues” (Pharmacyclics, Inc., priority 1999, dated 2009).
# How the values were obtained:
# [1] = test system: MES-SA human uterine cells; assay: Proliferation of MES-SA cells with ascorbate and texaphyrin (MTT); format: cell-based; conditions: ascorbate at or below 333 μM, absence of texaphyrin
# Procedure: The proliferation of MES-SA human uterine cells (Harker, W. G.; MacKintosh, F. R.; Sikic, B. I. Cancer Res. 1983, 43, 4943-4950) grown in RPMI-1640 medium in the presence of ascorbate or complex was used to assess the formation of hydrogen peroxide under cell culture conditions.
# (§1) 5A. Materials and Methods. MES-SA cells were allowed to adhere to (4) 96-well microtiter plates (4000 cells per well) overnight in 160 μL RPMI medium. Stock ascorbate 3.0 mM in medium (80 μL) was serially diluted (1:3) in rows B through F (discarding the final 80 μL). Row G was used for no-ascorbate control. Stock solutions of GdTex (2 mM in 5% mannitol) diluted in medium and 5% mannitol were prepared and added to the plates to give a final volume of 200 μL in all wells. Columns 2 and 3 contained 100 μM GdTex; columns 4 and 5 contained 75 μM GdTex, columns 6 and 7 contained 50 μM GdTex; columns 8 and 9 contained 25 μM GdTex; and columns 10 and 11 contained no GdTex (all concentrations final). Final mannitol concentration was 0.25% in all wells. The plates were incubated at 37 C under a 5% CO2/95% air atmosphere. Complex-containing medium was exchanged for fresh medium after 5 hours, and plates were incubated an additional 72 hours prior to analysis for viability using the tetrazolium dye, MTT (Mosmann, T. J. Immunol. Methods 1983, 65, 55-63). In brief, 20 μL MTT dye (Sigma Chemical, St. Louis, Mo., catalogue no. M 2128, 5 mg/mL solution in phosphate buffered saline) was added to cells in media to give a final volume of 200 μL. The plates were incubated at 37° C. for ca. 2 hours, whereupon the media was removed and isopropyl alcohol (100 μL/well) was added. Plates were vortexed for ca. 3 minutes to dissolve MTT formazan, then read on a microplate reader at 560-650 nm. Plate absorbances were normalized to wells containing neither ascorbate nor GdTex to allow plate to plate comparison. Data for each concentration of GdTex and ascorbate is the average of eight wells.
# The proliferation of MES-SA human uterine cells grown in RPMI-1640 medium in the presence of ascorbate and LuTex was used to assess the production of hydrogen peroxide under cell culture conditions following the protocol outlined in the previous example.
# [2] = test system: MES-SA human uterine cells; assay: Proliferation of MES-SA cells with BSO and GdTex (MTT); format: cell-based; conditions: Homo sapiens, MES-SA; absence of GdTex, highest (50 μM) concentration tested, ca. 72 hours; read-out: inhibitory effect of BSO alone
# Procedure: The proliferation of MES-SA human uterine cells grown in McCoys 5A medium in the presence of a thiol depleting agent (BSO) or GdTex was used to assess the combined effect of these agents. The protocol outlined in the previous example was followed, with the following changes:
# 1. The serially diluted compound was 200 μM BSO (Sigma Chemical, St. Louis, Mo., catalogue no. G1404).
# 2. The cells were allowed to incubate in the presence of the two drugs for ca. 72 hours, prior to exchange of media and analysis using the colorimetric (MTT) assay, as described, e.g., in Example 5.
# MES-SA cells [3] = assay: Response of MES-SA cells to ionizing radiation, microtiter plate format (MTT); format: cell-based, human; conditions: BSO 0 to 100 μM and higher, data not shown
# Procedure: The response of MES-SA cells to ionizing radiation was studied using the microtiter plate format to confirm radiation sensitization potential. This assay is used to assess rapidly the effects of irradiation under a variety of conditions.
# 10A. Materials and Methods. MES-SA cells were incubated at 37° C. and allowed to adhere to 96-well microtiter plates (1000 cells per well) overnight in 160 μL McCoys 5A containing 10% FBS (Gibco-BRL) and ca. 2% penicillin/streptomycin solution (Sigma). BSO or media (20 μL) was added, respectively to test and control wells, 24 h prior to irradiation. Metallotexaphyrin complex (up to 100 μM) was added to the test wells to give a final volume of 200 μL, 18-24 h prior to irradiation. Plates were irradiated using a 137Cs irradiator (Model 40 Gammacell, J. L. Shepherd & Assoc., San Fernando, Calif.) at a dose rate of 33.25 Rad/min. A lead brick (2″ diameter) was positioned to protect a column of wells (no. 11) from ionizing radiation. Plate absorbances were normalized to shielded wells to allow plate-to-plate comparison. […] Reversing the position of texaphyrin complex-containing wells had no effect on assay outcome. Medium was exchanged immediately after irradiation, and plates were incubated an additional 120 h prior to analysis for viability using the MTT assay (as described, e.g., in Example 5).
# MES-SA cells [4] = assay: Radiation sensitization by clonogenic assay; format: cell-based, human; conditions: 50 μM GdTex or 100 μM BSO for 24 h prior to irradiation, ascorbate-containing medium
# Procedure: The response of MES-SA cells to ionizing radiation was studied using a clonogenic assay format to confirm radiation sensitization potential.
# Materials and Methods. MES-SA cells (200 to 5,000 cells per dish) were plated in T-25 flasks in 8.5 mL McCoys 5A containing 10% FBS (Gibco-BRL) and ca. 2% penicillin/streptomycin solution (Sigma) and incubated at 37° C. overnight. Stock BSO, ascorbate, GdTex (or a control 5% mannitol) solutions were prepared and 0.5 mL of each added to each flask to give a final volume of 10 mL (final concentrations of BSO, ascorbate and GdTex were 100 μM, 5 μM and 50 μM, respectively) and the cells incubated for 24 hr, whereupon the flasks were irradiated using a 137Cs irradiator (Model 40 Gammacell, J. L. Shepherd & Assoc., San Fernando, Calif.) at a dose rate of 0.805 Gy/min. Medium was removed immediately after irradiation, the cells were washed with fresh medium (5.0 mL) followed by the addition of fresh medium (10 mL) and incubation for an additional 11 days. Colonies were fixed and stained with 1% crystal violet and then counted.
# [5] = test system: EMT-6 mouse mammary sarcoma cells; assay: Proliferation of EMT-6 cells with NADPH and texaphyrin (MTT); format: cell-based; conditions: NADPH at or below 1000 μM, absence of texaphyrin
# Procedure: as §1
# (§2) The proliferation of EMT-6 mouse mammary sarcoma (Rockwell, S. C., et al., J. Natl. Cancer Inst. 1972, 49, 735-749) cells grown in RPMI-1640 medium in the presence of NADPH and motexafin lutetium was used to assess the production of hydrogen peroxide under cell culture conditions following the protocol outlined in the previous example.
# as §2, with “GdTex” for “motexafin lutetium”
smiles,measurement,setting,value
"O=C1O[C@H]([C@@H](O)CO)C(O)=C1O [Ascorbate, ascorbic acid, reference compound]","inhibitory effect on cell proliferation, ascorbate alone",[1],no inhibitory effect
"CCCCS(=N)(=O)CC[C@H](N)C(=O)O (stereo partly drawn) [BSO, L-Buthionine-[S,R]-Sulfoximine, reference compound]",inhibition at 50 µM,[2],~10%
same,effect of BSO on GdTex radiation sensitization,MES-SA cells [3],"dose-dependent from 0 to 100 μM, and leveled off at higher BSO concentrations"
same,"effect on clonogenic survival as a function of radiation, single agent",MES-SA cells [4],relatively small effect on clonogenic survival
"NC(=O)C1=CN([C@@H]2O[C@H](COP(=O)(O)OP(=O)(O)OC[C@H]3O[C@@H](n4cnc5c(N)ncnc54)[C@H](OP(=O)(O)O)[C@@H]3O)[C@@H](O)[C@H]2O)C=CC1 [NADPH, reference compound]","inhibitory effect on cell proliferation, NADPH alone",[5],no inhibitory effect
